In patent EP0391462A1, “Synergistic compositions containing ketanserin” (JANSSEN PHARMACEUTICA N.V., priority 1989, dated 1990):

Legend:
[1] = system: patients with moderate, uncomplicated hypertension; details: difference between treated and untreated patients, mean ± standard error; end of treatment period, 1-2 hours after last dose, seated; ketanserin 40 mg b.i.d., captopril 50 mg b.i.d.
Experimental: The effect of a combination of the compound ketanserin (I) and an ACE inhibitor, captopril, on the lowering of blood pressure was investigated in a double-blind randomized cross-over study according to a latin square design.
Adult (≧18 years) patients with moderate, uncomplicated hypertension (105 mmHg ≦ DBP ≦ 115 mmHg at the end of a 1 month placebo wash-out period) were randomly assigned to: - placebo (1 tab q.i.d.); - placebo (1 tab b.i.d.) + ketanserin (1 tab 40 mg b.i.d.); - placebo (1 tab b.i.d.) + captopril (1 tab 50 mg b.i.d.); - ketanserin (1 tab 40 mg b.i.d.) + captopril (1 tab 50 mg b.i.d.).
At the end of each treatment period (1-2 hours after the last dose), blood pressure (by a mercury sphygmomanometer) and heart rate (by the palpatory method over a 30˝ period) of patients seated for 10′ were recorded by the same investigator during 3 measurements at 2′ intervals.

[2] = system: patients with mild to moderate, uncomplicated, essential hypertension; assay type: in vivo; details: absolute value, mean ± standard error; end of 3 month monotherapy (ketanserin 2 weeks 20 mg b.i.d. then 10 weeks 40 mg b.i.d., 9 pts; enalapril 12 weeks 10 mg b.i.d., 7 pts)
Experimental: The effect of a combination of the compound ketanserin (I) and enalapril on the lowering of blood pressure was investigated in a randomized double-blind parallel group study. Elderly (≧ 50 years) patients with mild to moderate, uncomplicated, essential hypertension (95 mm Hg ≦ DBP ≦ 105 mm Hg at the end of a 3 month period on double blind monotherapy) received ketanserin (1 tab 40 mg b.i.d.) + enalapril (1 tab 10 mg b.i.d.). […] Bloodpressure (SBP, DBP) and heart rate (HR) (mean values ± standard error) are in mm Hg and b.p.m.

SMILES	difference of diastolic blood pressure (DBP) [1]	difference of systolic blood pressure (SBP) [1]	DBP, End Monotherapy Phase [2]	SBP, End Monotherapy Phase [2]
C[C@H](CS)C(=O)N1CCC[C@H]1C(=O)O [Captopril, captopril]	-8.75±1.3 mmHg	-8.75±1.96 mmHg	–	–
CCOC(=O)[C@H](CCc1ccccc1)N[C@@H](C)C(=O)N1CCC[C@H]1C(=O)O [Enalapril, enalapril]	–	–	101.42±10.07 mm Hg	160.0±5.77 mm Hg
O=C(c1ccc(F)cc1)C1CCN(CCn2c(=O)[nH]c3ccccc3c2=O)CC1 [Ketanserin, 3-[2-[4-(4-fluorobenzoyl)-1-piperidinyl]ethyl]-2,4(1H,3H)-quinazolinedione]	-7.92±1.3 mmHg	-8.33±2.33 mmHg	102.22±5.65 mm Hg	148.88±13.64 mm Hg
